Test results from patent US20140303090A1, “Smac Mimetic Therapy” (TETRALOGIC PHARMACEUTICALS CORPORATION, priority 2013, published 2014).
Read-outs that look alike come from different tables or passages of the source.

Experiments:
TRAF2-bound cIAP-2 = TRAF2-bound cIAP-2 (Homo sapiens, UniProt Q13489); experiment: Anti-TRAF2 co-immunoprecipitation and western blot of TRAF2-bound cIAP-2 in GFP-cIAP-2 A375 cells; details: 100 nM, 0 to 240 minutes
Description: (§7) The stable cell lines expressing GFP-cIAP-1 or GFP-cIAP-2 were cultured in 10 cm dishes in sub-confluence overnight. […] The lysate was cleared by centrifugation (14000 rpm) at 4° C. for 10 minutes and the supernatant was subjected to the co-immunoprecipitation experiment. The protein concentration of the supernatant was measured by using Bradford reagent (Sigma). Co-immunoprecipitation was carried out with 600 μg of the total protein and 1 μg of anti-TRAF 2 antibody (Cell Signaling). After the incubation at 4° C. for overnight, 25 μL protein A/G beads (Invitrogen) was added to precipitate the immunocomplex. The beads were washed with the lysis buffer three times, followed by dissolving with 25 μL SDS-Loading buffer (Invitrogen).
(§8) The membrane was soaked with the blocking buffer (LICOR) for 30 minutes, followed by incubation with the primary antibodies, cIAP-1 and cIAP-2 (R&D Systems), at 4° C. for overnight. After the incubation, the membrane was washed three times with TBS-T buffer (Invitrogen) and incubated with IRDye anti-goat antibody (LICOR) at 37° C. for 45 minutes. Following 5 times washings, the membrane was scanned by The Odyssey Infrared Imaging System (LICOR).

xenograft = details: cited from earlier work
[1] = cited from earlier work
[2] = biological target: cIAP-1 (cytoplasmic and TRAF2-bound) (Homo sapiens, UniProt Q13490); experiment: Co-immunoprecipitation and western blot, cytoplasmic versus TRAF2-bound cIAP-1 in GFP-cIAP-1 A375 cells; details: 100 nM, 0 to 240 minutes, visual
Description: as §7, §8

cytoplasmic cIAP-2 = cytoplasmic cIAP-2 (Homo sapiens, UniProt Q13489); experiment: Western blot of cytoplasmic cIAP-2 in GFP-cIAP-2 A375 cells; details: 100 nM, 0 to 240 minutes
Description: as §7, §8

GFP-cIAP2 [3] = biological target: T1, GFP-cIAP2 (Homo sapiens, UniProt Q13489); experiment: GFP-cIAP2 degradation assay (loss of GFP signal, flow cytometry); type: cell-based
T1 construct: expressed in transfected cells
Excerpt: In this assay, treatment of GFP-cIAP-expressing melanoma cell line A375 with Smac mimetic, Compound 15, for two hours, results in degradation of cIAP-1 and cIAP-2 with concomitant loss of GFP-signal.

GFP-cIAP2 [4] = biological target: T1, GFP-cIAP2; experiment: as above; type: cell-based; details: read-out: ΔGFP-cIAP2 EC50, 24 h
[5] = system: DAP-mediated NF-κB-luc (NOD1); experiment: DAP-stimulated NF-kB luciferase reporter gene assay (NOD1 signaling) in HCT116 cells; type: cell-based, human; details: for Inhibition of DAP-mediated NF-κB-luc, % Inhibition: 10 μM Smac mimetic, HCT116 cells
Description: (§1) To assay effects on XIAP E3 ubiquitin ligase activity manifested as NF-kB activation, we established both DAP- and MDP-stimulated luciferase reporter gene assays in which Smac mimetics are evaluated in cells at a single 10 μM drug concentration. Specifically, we developed stable cell lines with HCT116 cells (human colon cancer) that carry the NF-kB-luciferase reporter gene under the regulation of NF-kB promoter activation elements. The assay was carried out as follows: • 1. HCT116 (3-3) cells were cultured in white wall 96-wells plate (50,000 cells/50 μL/well) for overnight at 37° C. • 2. […] The luciferase activity in each well was measured by using Steady-Glo® Luciferase Assay System (Promega Corp.). 48 μL of luminescence detection reagent was added in each well, followed by brief agitation. The plate was left in dark for 15 minutes and then the luminescence activity was measured by using microplate reader Victor2 (PerkinElmer Life and Analytical Science, Shelton, Conn.). • 4. Calculation:
(§2) Luciferase activity in no ligand (i.e., […]) treatment wells=background (BG)
(§3) Luciferase activity in ligand only treatment wells=positive control (PC)
(§4) Luciferase activity in Smac mimetic (SM)+ligand treatment wells=Test • i) Test<PC
(§5) Inhibitory activity by SM(%)=100×[(PC−Test)/(PC−BG)] • ii) Test>PC
(§6) Activation by SM(%)=100×[(Test−BG)/(PC−BG)]

[6] = system: MDP-mediated NF-κB-luc (NOD2); experiment: MDP-stimulated NF-kB luciferase reporter gene assay (NOD2 signaling) in HCT116 cells; type: cell-based, human; details: for Inhibition of MDP-mediated NF-κB-luc, % Inhibition: 10 μM Smac mimetic, HCT116 cells
Description: as §1, §2, §3, §4, §5, §6

cIAP2 BIR3 = cIAP2 BIR3 (Homo sapiens, UniProt Q13489); experiment: Fluorescence polarization displacement assay, cIAP2 BIR3; details: for Ki: read-out: cIAP2 BIR3, Ki
Description: (§9) To establish protein-ligand binding affinity, we employed a fluorescence polarization assay. This assay monitored the displacement of an IAP binding motif (IBM)-containing peptide, Abu-RPFK(5-carboxyfluorescein)-NH2, from the Type III BIR domains of cIAP1, cIAP2, XIAP, and ML-IAP.

Tolerability = details: in vivo
Excerpt: . Binding of IAP antagonists to cIAP1 proteins induces a conformational rearrangement that exposes the RING domain. Once exposed, the RING domain dimerizes and E3 ubiquitin ligase activity is activated. Using a range of assays that evaluated cIAP1 stability; NF-κB activation; cIAP1 oligomeric state; […]. Birinapant-induced loss of cIAPs correlated with inhibition of TNF-mediated NF-κB activation, caspase activation, tumor cell killing, and tumor regression. Birinapant was well-tolerated. […]. […]; (ii.) decreased affinity for XIAP BIR3; (iii.) decreased ability to inhibit XIAP-dependent NOD signaling, despite its activity in an XIAP-dependent caspase-3 activation assay; and, (iv.) decreased pro-inflammatory IL-1β secretion. […]

Xiap−/− murine BMDMs = experiment: IL-1β secretion from LPS-primed XIAP knockout bone marrow-derived macrophages; type: cell-based; details: 24 h
Description: We thus evaluated a selection of Smac-mimetics in both LPS-primed wild-type (WT) and XIAP knockout (Xiap^−/−) murine BMDMs to assess their capacity to induce the secretion of IL-1β following treatment with Smac-mimetic (FIG. 4).
WT and Xiap^−/− BMDMs were primed with LPS±the indicated concentration of Smac-mimetics for 24 h. WT BMDM results are presented as the mean±SEM (n=3 biological independent repeats).

WT murine BMDMs = experiment: IL-1β secretion from LPS-primed WT bone marrow-derived macrophages; type: cell-based; details: 24 h
Excerpt: Given the heightened activity of 2 versus 1 on cIAP2, we speculated that the improved tolerability of 1 might also be associated with reduced antagonism of XIAP functional activity in this system. We thus evaluated a selection of Smac-mimetics in both LPS-primed wild-type (WT) and XIAP knockout (Xiap^−/−) murine BMDMs to assess their capacity to induce the secretion of IL-1β following treatment with Smac-mimetic (FIG. 4).
WT and Xiap^−/− BMDMs were primed with LPS±the indicated concentration of Smac-mimetics for 24 h. WT BMDM results are presented as the mean±SEM (n=3 biological independent repeats). […] Total levels of IL-1β induced by Smac-mimetics in these assays varied but the trend was identical.

XIAP BIR3 = XIAP BIR3 (Homo sapiens, UniProt P98170); experiment: Fluorescence polarization displacement assay, XIAP BIR3
Description: as §9

[7] = read-out: ΔGFP-cIAP2 EC50, 2 h, 2 h, A375 cells

cIAP2 BIR3, sequence (Q13489 238-349 limits assumed): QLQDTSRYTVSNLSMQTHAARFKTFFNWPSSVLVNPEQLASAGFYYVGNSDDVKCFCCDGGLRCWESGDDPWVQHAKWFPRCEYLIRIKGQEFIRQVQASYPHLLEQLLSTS
T1 sequence (Q13489 whole entry): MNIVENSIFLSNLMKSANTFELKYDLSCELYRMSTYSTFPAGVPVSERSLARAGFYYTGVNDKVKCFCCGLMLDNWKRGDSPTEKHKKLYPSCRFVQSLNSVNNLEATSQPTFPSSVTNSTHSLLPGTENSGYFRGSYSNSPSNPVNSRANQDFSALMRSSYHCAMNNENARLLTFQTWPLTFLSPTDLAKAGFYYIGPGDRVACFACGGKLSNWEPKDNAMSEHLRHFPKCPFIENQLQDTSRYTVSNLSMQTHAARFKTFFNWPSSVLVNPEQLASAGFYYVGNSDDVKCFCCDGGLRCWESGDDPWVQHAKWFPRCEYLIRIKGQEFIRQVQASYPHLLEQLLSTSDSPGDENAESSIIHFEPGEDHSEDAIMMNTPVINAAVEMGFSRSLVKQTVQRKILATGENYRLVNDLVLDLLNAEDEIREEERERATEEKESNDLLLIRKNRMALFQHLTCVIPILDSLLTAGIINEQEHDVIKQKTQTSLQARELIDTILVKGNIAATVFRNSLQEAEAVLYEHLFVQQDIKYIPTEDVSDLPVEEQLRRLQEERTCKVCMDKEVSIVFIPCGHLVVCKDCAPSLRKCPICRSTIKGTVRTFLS
TRAF2-bound cIAP-2, sequence (Q13489 whole entry): as above
TRAF2-bound cIAP-2, sequence (Q12933 whole entry partner): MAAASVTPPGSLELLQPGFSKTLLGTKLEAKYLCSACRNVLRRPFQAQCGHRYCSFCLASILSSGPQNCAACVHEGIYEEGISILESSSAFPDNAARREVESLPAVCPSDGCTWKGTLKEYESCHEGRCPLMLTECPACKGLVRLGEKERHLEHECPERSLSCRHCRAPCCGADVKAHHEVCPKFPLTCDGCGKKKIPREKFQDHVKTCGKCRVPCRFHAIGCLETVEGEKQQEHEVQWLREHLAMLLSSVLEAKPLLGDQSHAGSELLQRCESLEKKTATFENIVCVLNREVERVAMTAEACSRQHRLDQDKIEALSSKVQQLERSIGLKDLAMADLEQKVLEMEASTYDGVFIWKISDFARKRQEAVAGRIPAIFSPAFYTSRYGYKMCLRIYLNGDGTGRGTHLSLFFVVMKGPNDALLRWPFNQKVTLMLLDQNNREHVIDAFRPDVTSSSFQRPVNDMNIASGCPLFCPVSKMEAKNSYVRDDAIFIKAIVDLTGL
cytoplasmic cIAP-2, sequence (Q13489 whole entry): as the sequence (Q13489 whole entry) above
XIAP BIR3, sequence (P98170 241-356 limits assumed): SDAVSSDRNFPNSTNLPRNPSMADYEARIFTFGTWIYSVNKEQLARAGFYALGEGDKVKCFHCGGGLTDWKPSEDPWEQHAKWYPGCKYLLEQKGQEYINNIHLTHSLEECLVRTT
cIAP-1 (cytoplasmic and TRAF2-bound), sequence (Q13490 whole entry): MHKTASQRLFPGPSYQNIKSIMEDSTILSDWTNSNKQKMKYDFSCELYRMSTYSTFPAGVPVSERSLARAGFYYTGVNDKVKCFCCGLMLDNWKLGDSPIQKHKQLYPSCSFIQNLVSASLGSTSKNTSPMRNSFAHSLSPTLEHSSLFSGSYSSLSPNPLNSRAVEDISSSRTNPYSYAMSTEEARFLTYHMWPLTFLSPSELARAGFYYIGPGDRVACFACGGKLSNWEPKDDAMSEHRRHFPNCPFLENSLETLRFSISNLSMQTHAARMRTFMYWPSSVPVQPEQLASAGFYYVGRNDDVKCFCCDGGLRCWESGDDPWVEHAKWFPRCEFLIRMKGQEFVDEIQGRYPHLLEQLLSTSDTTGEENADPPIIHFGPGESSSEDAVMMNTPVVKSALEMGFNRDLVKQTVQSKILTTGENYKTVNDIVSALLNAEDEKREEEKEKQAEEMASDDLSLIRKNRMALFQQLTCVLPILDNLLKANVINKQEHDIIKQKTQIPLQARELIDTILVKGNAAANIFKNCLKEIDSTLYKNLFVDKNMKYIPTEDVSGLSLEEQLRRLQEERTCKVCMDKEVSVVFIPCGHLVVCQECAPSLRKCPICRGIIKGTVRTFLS

Question: Which “degradation of TRAF2-bound cIAP-2” value (TRAF2-bound cIAP-2) does the source give for `CN[C@@H](C)C(=O)N[C@H](C(=O)N1C[C@@H](O)C[C@H]1Cc1c(-c2[nH]c3cc(F)ccc3c2C[C@@H]2C[C@H](O)CN2C(=O)[C@@H](NC(=O)[C@H](C)NC)[C@@H](C)OC)[nH]c2cc(F)ccc12)[C@@H](C)OC` [Compound 5] here?
Answer: The value was “degraded”.

Question: And the “antitumor activity compared to Compound 15” value (xenograft)?
Answer: The value was “comparable antitumor activity”.

Question: And the “tolerability in rats compared to Compound 15” value [1]?
Answer: The value was “less well-tolerated”.

Question: What about the “extent of degradation of cytoplasmic cIAP-1 versus cIAP-1 bound to TRAF2” value [2] of the same compound?
Answer: Its value is “approximately the same”.

Question: And the “degradation of cytoplasmic cIAP-2” value (cytoplasmic cIAP-2)?
Answer: The value was “degraded”.

Question: What does the source list for `CC[C@@H](NC(=O)[C@H](C)NC)C(=O)N1C[C@@H](O)C[C@H]1Cc1c(-c2[nH]c3cc(F)ccc3c2C[C@@H]2C[C@H](O)CN2C(=O)[C@@H](CC)NC(=O)[C@H](C)NC)[nH]c2cc(F)ccc12` [compound 4]?
Answer: EC50 (TNF-mediated NF-κB-luc): 4980 ± 996 nM; DC50 (GFP-cIAP2 [3]; [7]): 5720 ± 157 nM; DC50 (GFP-cIAP2 [4]): 5540 ± 115 nM

Question: Which EC50 (TNF-mediated NF-κB-luc) does the source give for `CC[C@@H](NC(=O)[C@@H](C)NC)C(=O)N1C[C@H](O)C[C@@H]1Cc1c(-c2[nH]c3cc(F)ccc3c2C[C@H]2C[C@@H](O)CN2C(=O)[C@@H](CC)NC(=O)[C@@H](C)NC)[nH]c2cc(F)ccc12` [compound 5, ent-birinapant] here?
Answer: Its EC50 is > 10000 nM.

Question: And the DC50 (GFP-cIAP2 [3]; [7])?
Answer: The DC50 was > 10000 nM.

Question: And the DC50 (GFP-cIAP2 [4])?
Answer: Its DC50 is > 10000 nM.

Question: With `CN[C@@H](C)C(=O)N[C@H](C(=O)N1C[C@@H](O)C[C@H]1Cc1c(Cc2[nH]c3cc(F)ccc3c2C[C@@H]2C[C@H](O)CN2C(=O)[C@@H](NC(=O)[C@H](C)NC)C(C)(C)C)[nH]c2cc(F)ccc12)C(C)(C)C` [(14)] as the compound, how does the “Inhibition of DAP-mediated NF-κB-luc, % Inhibition” value [5] read?
Answer: The value was 74 (+/−14) %.

Question: And the “Inhibition of MDP-mediated NF-κB-luc, % Inhibition” value [6]?
Answer: Its value is 86 (+/−9) %.

Question: What does the source list for `CC[C@H](NC(=O)[C@H](C)NC)C(=O)N1C[C@@H](O)C[C@H]1Cc1c(-c2[nH]c3cc(F)ccc3c2C[C@@H]2C[C@H](O)CN2C(=O)[C@H](CC)NC(=O)[C@H](C)NC)[nH]c2cc(F)ccc12` [birinapant (1), birinapant]?
Answer: reduction of affinity for cIAP2 BIR3 compared with Compound A (cIAP2 BIR3): approximately 40 fold; Ki (cIAP2 BIR3): 36 nM; Ki (cIAP2 BIR3; listed as Birinapant): ~36 nM; degradation of TRAF2-bound cIAP-2 (TRAF2-bound cIAP-2): degraded; tolerability (Tolerability): well-tolerated; EC50 (TNF-mediated NF-κB-luc): 9 ± 5 nM; IL-1β secretion in Xiap−/− BMDMs (Xiap−/− murine BMDMs): induced IL-1β secretion; EC50 (GFP-cIAP2 [3]; [7]): 108 ± 46 nM; IL-1β secretion from LPS-primed WT BMDMs (WT murine BMDMs): no increase in IL-1β secretion; Inhibition of DAP-mediated NF-κB-luc, % Inhibition ([5]; listed as 1): ca. 35%; Inhibition of DAP-mediated NF-κB-luc, % Inhibition ([5]; listed as Birinapant (1)): 35 (+/−16) %; Inhibition of DAP-mediated NF-KB-luc @ 2 h, % Inhibition ([5]; @ 2 h): 35 ± 16%; degradation of cytoplasmic cIAP-2 (cytoplasmic cIAP-2): substantially non-degraded; Inhibition of MDP-mediated NF-κB-luc, % Inhibition ([6]; listed as 1): ca. 35%; Inhibition of MDP-mediated NF-κB-luc, % Inhibition ([6]; listed as Birinapant (1)): 35 (+/−14) %; Inhibition of MDP-mediated NF-KB-luc @ 2 h, % Inhibition [6]: 35 ± 14%; EC50 (GFP-cIAP2 [4]): 151 ± 86 nM

Question: Which Kd (XIAP BIR3; read-out: XIAP BIR3 Kd) does the source give for `CN[C@@H](C)C(=O)N[C@H](C(=O)N1C[C@@H](O)C[C@H]1Cc1c(Cc2[nH]c3cc(F)ccc3c2C[C@@H]2C[C@H](O)CN2C(=O)[C@@H](NC(=O)[C@H](C)NC)C(C)(C)C)[nH]c2cc(F)ccc12)C(C)(C)C` [(12)] here?
Answer: Its Kd is < 1 nM.

Question: What about the “Inhibition of DAP-mediated NF-κB-luc, % Inhibition” value [5] of the same compound?
Answer: The value was 99 (+/−2) %.

Question: What about the “Inhibition of MDP-mediated NF-κB-luc, % Inhibition” value [6] of the same compound?
Answer: The value was 98 (+/−2) %.

Question: With `CN[C@@H](C)C(=O)N[C@H](C(=O)N1C[C@@H](O)C[C@H]1Cc1c(Cc2[nH]c3cc(F)ccc3c2C[C@@H]2C[C@H](O)CN2C(=O)[C@@H](NC(=O)[C@H](C)NC)C(C)(C)C)[nH]c2cc(F)ccc12)C(C)(C)C` [(11)] as the compound, how does the Kd (XIAP BIR3) read?
Answer: Its Kd is < 1 nM.

Question: And the “Inhibition of DAP-mediated NF-κB-luc, % Inhibition” value [5]?
Answer: Its value is 100 (n = 1) %.

Question: And the “Inhibition of MDP-mediated NF-κB-luc, % Inhibition” value [6]?
Answer: Its value is 100 (n = 2) %.

Question: With `CN[C@@H](C)C(=O)N[C@H](C(=O)N1C[C@@H](O)C[C@H]1Cc1c(Cc2[nH]c3cc(F)ccc3c2C[C@@H]2C[C@H](O)CN2C(=O)[C@@H](NC(=O)[C@H](C)NC)C(C)(C)C)[nH]c2cc(F)ccc12)C(C)(C)C` [(13)] as the compound, how does the “Inhibition of DAP-mediated NF-κB-luc, % Inhibition” value [5] read?
Answer: Its value is “No inhibition”.

Question: And the “Inhibition of MDP-mediated NF-κB-luc, % Inhibition” value [6]?
Answer: Its value is “No inhibition”.

Question: Which results are given for `CC[C@H](NC(=O)[C@H](C)NC)C(=O)N1C[C@@H](O)C[C@H]1Cc1c(-c2[nH]c3cc(F)ccc3c2C[C@@H]2C[C@H](O)CN2C(=O)[C@@H](CC)NC(=O)[C@H](C)NC)[nH]c2cc(F)ccc12` [compound 3]?
Answer: EC50 (TNF-mediated NF-κB-luc): 1730 ± 985 nM; reduced ability to degrade GFP-cIAP2 relative to 1 (GFP-cIAP2 [3]): 100 fold; DC50 (GFP-cIAP2 [3]; [7]): > 10000 nM; Inhibition of MDP-mediated NF-KB-luc @ 2 h, % Inhibition [6]: No; DC50 (GFP-cIAP2 [4]): 4930 ± 1600 nM
